Assay results: article PMC9047634 (RSC Advances, 2019)

Target: chorismate mutase (CM) (Mycobacterium tuberculosis, UniProt P9WIB9)
Assay: biochemical
Conditions: read-out: % Inhibition @ 30 μM ^a

Chain of chorismate mutase (CM) (P9WIB9 34-199): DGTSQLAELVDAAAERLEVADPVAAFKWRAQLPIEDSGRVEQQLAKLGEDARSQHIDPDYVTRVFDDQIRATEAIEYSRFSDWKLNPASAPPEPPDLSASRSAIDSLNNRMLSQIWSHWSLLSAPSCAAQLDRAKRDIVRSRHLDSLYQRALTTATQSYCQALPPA

For COc1ccc(CCNc2c([N+](=O)[O-])cc(C(=O)O)cc2S(N)(=O)=O)cc1OC [G, 4-(3,4-dimethoxyphenethylamino)-3-nitro-5-sulfamoylbenzoic acid], the inhibition at 30 µM was 57%.
